Test results reported in patent US12643853B2, “Cannabigerol proline cocrystals” (Manoira Corporation, priority 2019, dated 2026).

What was measured:
[1] = oven at 100° C. for 20 hours
Method: (§1) X-Ray Powder Diffraction Characterisation: X-ray powder diffraction patterns for the samples were acquired on a Bruker D8 diffractometer using CuKα radiation (40 kV, 40 mA), θ-2θ goniometer, V4 receiving slits, a Ge monochromator and a Lynxeye detector. The instrument is performance checked using a certified Corundum standard (NIST 1976). The data were collected over an angular range of 4° to 30° 2Θ using a step size of 0.05° 2Θ and a step time of 4 seconds. Samples were run under ambient conditions as flat plate specimens using powder as received. Approximately, 35 mg of the sample was gently packed into a cavity cut into polished, zero background (510) silicon wafer. The software used for data collection and analysis was Diffrac Plus XRD Commander and Diffrac Plus EVA respectively.

[2] = sealed container, 40° C. and 75% relative humidity, 8 weeks
Method: as §1
A study was carried out to examine the physical stability of the 1:2 cannabigerol L-proline cocrystal with respect to solid form conversion or deliquescence over time under accelerated conditions. 1:2 Cannabigerol L-proline cocrystal (50 mg) was placed in a sealed container at 40° C. and 75% relative humidity and stored under these conditions for 8 weeks. […] The sample was analysed by XRPD to observe any potential form changes.

[3] = Solid-state stability of cannabigerol Form I at 50° C.; assay type: physicochemical; settings: oven at 50° C. for 10 minutes; for solid form by XRPD after heating and cooling: then allowed to cool
Method: A study was carried out to assess the stability of cannabigerol Form I under conditions of temperatures commonly reached during processing and storage. Cannabigerol Form I (50 mg) was placed in an oven at 50° C. for 10 minutes. […] The sample was allowed to cool after which time a solid was produced.

CCCCCc1cc(O)c(C/C=C(\C)CCC=C(C)C)c(O)c1.O=C(O)[C@@H]1CCCN1.O=C(O)[C@@H]1CCCN1 [1:2 cannabigerol L-proline cocrystal]
solid form conversion by XRPD after high temperature storage [1]: retained its original crystalline form
physical state / deliquescence after storage [2]: completely solid with no signs of deliquescence
solid form conversion by XRPD after storage ([2]; XRPD): retained its original crystalline form

CCCCCc1cc(O)c(C/C=C(\C)CCC=C(C)C)c(O)c1 [Cannabigerol Form I, 2-[(2E)-3,7-dimethylocta-2,6-dienyl]-5-pentyl-benzene-1,3-diol]
physical state after heating [3]: melted to produce an oil
solid form by XRPD after heating and cooling [3]: undergone a polymorph transition to form a new polymorphic form (designated Form III)
solid form by XRPD after heating and cooling ([3]; listed as cannabigerol Form I): undergone a form conversion to a previously unidentified polymorph (designated Form III)
physical state after heating ([3]; listed as cannabigerol Form I): became a liquid
